Assay results published in ChEMBL document CHEMBL1156824, “Physicochemical space for optimum oral bioavailability: contribution of human intestinal absorption and first-pass elimination” (J Med Chem, 2010).

Tests used:
[1] = species on record: Homo sapiens; experiment: Fraction escaping gut-wall elimination in human; conditions: in vivo
[2] = species on record: Homo sapiens; experiment: Fraction escaping hepatic elimination in human; conditions: in vivo
[3] = species on record: Homo sapiens; experiment: Fraction absorbed in human; conditions: in vivo
[4] = species on record: Homo sapiens; experiment: Hepatic clearance in human; conditions: in vivo
[5] = tested on: Homo sapiens; experiment: Oral bioavailability in human; conditions: in vivo
[6] = clinical; conditions: human, in vivo
[7] = clinical; conditions: human, in vivo; remark: listed apart in the source
[8] = tested on: Plasma; experiment: Fraction unbound in human plasma
[9] = (§1) Volume of distribution at steady state in human; conditions: in vivo
[10] = species on record: Homo sapiens; experiment: as §1; conditions: in vivo
[11] = species on record: Homo sapiens; experiment: in vitro; conditions: plasma
[12] = species on record: Homo sapiens; conditions: in vivo

Row | Compound | Fg [1] | Fh [2] | Fa [3] | CL [4] [mL/min/kg] | F_fraction [5] | CL renal [6] [mL/min/kg] | further results
1 | CN1C(C(=O)Nc2ccccn2)=C(O)c2sccc2S1(=O)=O [TENOXICAM] | 1 | 1 | 1 | 0.0297 | 1 | 0.0003 | –
2 | COc1cc(Cc2cnc(N)nc2N)cc(OC)c1OC [TRIMETHOPRIM] | 0.83 | 0.95 | 0.97 | – | 0.76 | – | –
3 | CN/C(=N/CCSCc1nc[nH]c1C)NC#N [CIMETIDINE] | – | 0.99 | 0.68 | 0.2 | 0.68 | – | –
4 | C[C@@H]1[C@H](O)[C@@H](C)/C=C/C=C/C=C/C=C/C=C/C=C/C=C/[C@H](O[C@@H]2O[C@H](C)[C@@H](O)[C@H](N)[C@@H]2O)C[C@@H]2O[C@](O)(C[C@@H](O)C[C@@H](O)[C@H](O)CC[C@@H](O)C[C@@H](O)CC(=O)O[C@H]1C)C[C@H](O)[C@H]2C(=O)O [AMPHOTERICIN B] | – | – | – | 0.4 | – | 0.0138 | clearance [7]: 0.46 mL/min/kg
5 | GENTAMICIN | – | – | – | 0.3 | – | – | Fu [8]: 1
6 | CNCCC=C1c2ccccc2CCc2ccccc21 [NORTRIPTYLINE] | 0.89 | 0.57 | 1 | 9.8 | 0.51 | – | –
7 | COc1ccc(Cl)cc1C(=O)NCCc1ccc(S(=O)(=O)NC(=O)NC2CCCCC2)cc1 [GLYBURIDE] | – | – | – | 0.8 | – | – | Vd [9]: 0.08 L/kg; Fu [8]: 0.021
8 | CC(C)NCC(O)COc1ccc(CC(N)=O)cc1 (stereo not given) [ATENOLOL] | 1 | 1 | – | – | – | – | –
9 | CN1[C@@H]2CC[C@H]1C[C@@H](OC(=O)C(CO)c1ccccc1)C2 (stereo not given in full) [ATROPINE] | 0.59 | 0.86 | 0.98 | – | – | – | –
10 | CC(C)N(CCC(C(N)=O)(c1ccccc1)c1ccccn1)C(C)C (stereo not given) [DISOPYRAMIDE] | – | – | – | 0.4 | – | – | Fu [8]: 0.16
11 | C[C@]12C=CC(=O)C=C1CC[C@@H]1[C@@H]2[C@@H](O)C[C@@]2(C)[C@H]1CC[C@]2(O)C(=O)CO [PREDNISOLONE] | – | – | – | 2.3 | – | – | Fu [8]: 0.25
12 | O=P1(N(CCCl)CCCl)NCCCO1 (stereo not given) [CYCLOPHOSPHAMIDE ANHYDROUS] | 0.86 | 0.96 | 0.9 | 1 | 0.74 | 0.1 | –
13 | CNC[C@H](O)CC12CCC(c3ccccc31)c1ccccc12 [LEVOPROTILINE] | – | – | – | 12.1 | – | 0.2 | clearance [7]: 12.3 mL/min/kg
14 | c1ccc2c(c1)OCC(C1=NCCN1)O2 (stereo not given) [IDAZOXAN] | – | – | – | 10 | – | – | clearance [7]: 10 mL/min/kg
15 | Cc1cc(NS(=O)(=O)c2ccc(N)cc2)no1 [SULFAMETHOXAZOLE] | 1.01 | 0.99 | 1 | – | – | – | –
16 | CCCCCN(CCCOC)C(=O)C(CCC(=O)O)NC(=O)c1ccc(Cl)c(Cl)c1 (stereo not given) [LOXIGLUMIDE] | – | – | – | 1 | – | 0.022 | clearance [7]: 1 mL/min/kg
17 | Clc1ccc2nsnc2c1NC1=NCCN1 [TIZANIDINE] | 0.39 | 0.54 | 1 | 10.7 | 0.21 | 0.3 | –
18 | COc1ccnc(C[S+]([O-])c2nc3ccc(OC(F)F)cc3[nH]2)c1OC (stereo not given) [PANTOPRAZOLE] | – | – | – | 2.2 | – | – | Vdss [10]: 6.3 L/kg
19 | CC(C)NCC(O)COc1ccc(CCOCC2CC2)cc1 (stereo not given) [BETAXOLOL] | 1.01 | 0.88 | 1 | 2.7 | 0.89 | – | –
20 | COc1ccc2c(c1)c(CC(=O)O)c(C)n2C(=O)c1ccc(Cl)cc1 [INDOMETHACIN] | – | – | – | 1.1 | – | – | Fu [8]: 0.01
21 | CCc1cccc2cc(C(O)CNC(C)(C)C)oc12 (stereo not given) [BUFURALOL] | 0.7 | 0.61 | 1 | 8.9 | 0.43 | – | fraction unbound [11]: 0.19; CL_renal [12]: 0 mL/min/kg
22 | COc1cc([C@@H]2c3cc4c(cc3[C@@H](O[C@@H]3O[C@@H]5CO[C@@H](C)O[C@H]5[C@H](O)[C@H]3O)[C@H]3COC(=O)[C@H]23)OCO4)cc(OC)c1O [ETOPOSIDE] | – | 0.99 | – | 0.3 | – | 0.2 | clearance [7]: 0.5 mL/min/kg
23 | O=C1C(O)=C([C@H]2CC[C@H](c3ccc(Cl)cc3)CC2)C(=O)c2ccccc21 [ATOVAQUONE] | – | – | – | 0.2 | – | – | Vd [9]: 0.6 L/kg; Fu [8]: 0.001

Row | Compound | Fg [1] | Fh [2] | Fa [3] | CL [4] [mL/min/kg] | F_fraction [5] | CL renal [6] [mL/min/kg] | further results
24 | CC(C)(C)NCC(O)COc1cccc2c1CC(O)C(O)C2 (stereo not given) [NADOLOL] | – | – | – | 1.1 | – | – | Fu [8]: 0.14
25 | Nc1ccc(S(=O)(=O)Nc2ncccn2)cc1 [SULFADIAZINE] | 1.01 | 0.99 | 0.85 | 0.2 | 0.85 | 0.3 | –
26 | O=C(O)c1cc(/N=N/c2ccc(S(=O)(=O)Nc3ccccn3)cc2)ccc1O [SULFASALAZINE] | – | – | – | 0.2 | – | 0.1 | clearance [7]: 0.24 mL/min/kg
27 | O=C1NC(=O)C(c2ccccc2)(c2ccccc2)N1 [PHENYTOIN] | – | 0.98 | – | 0.4 | – | 0.0074 | clearance [7]: 0.37 mL/min/kg
28 | CC1=C(C(=O)O)N2C(=O)[C@@H](NC(=O)[C@H](N)c3ccccc3)[C@H]2SC1 [CEPHALEXIN ANHYDROUS] | 0.91 | – | – | – | – | – | –
29 | CCOC(=O)C1(c2ccccc2)CCC=CC1N(C)C (stereo not given) [TILIDINE] | – | – | – | 15.7 | – | 0.3 | fraction unbound [11]: 0.21; Vd [9]: 4 L/kg
30 | Nc1nc(O)c2ncn(COC(CO)CO)c2n1 [GANCICLOVIR] | – | – | – | 0.5 | 0.09 | – | Vd [9]: 1 L/kg
31 | CO/N=C(\C(=O)N[C@@H]1C(=O)N2C(C(=O)O)=C(C)CS[C@H]12)c1csc(N)n1 | – | – | – | 0.4 | – | – | fraction unbound [11]: 0.78
32 | CCCc1cc(=O)[nH]c(=S)[nH]1 [PROPYLTHIOURACIL] | 0.97 | 0.87 | – | 3.1 | – | – | Fu [8]: 0.18
33 | Cc1onc(-c2ccccc2Cl)c1C(=O)N[C@@H]1C(=O)N2[C@@H]1SC(C)(C)[C@@H]2C(=O)O [CLOXACILLIN] | – | – | – | 0.6 | – | 1 | clearance [7]: 1.6 mL/min/kg
34 | CN1[C@@H]2C[C@@H](OC(=O)[C@H](CO)c3ccccc3)C[C@H]1[C@@H]1O[C@@H]12 [SCOPOLAMINE] | 0.82 | 0.35 | – | – | – | – | –
35 | Cc1ncc2n1-c1ccc(Cl)cc1C(c1ccccc1F)=NC2 [MIDAZOLAM] | – | – | – | 5.3 | 0.38 | – | CL_renal [12]: 0 mL/min/kg
36 | C[C@@H](O)[C@H]1C(=O)N2C(C(=O)O)=C(SCCN=CN)C[C@H]12 [IMIPENEM ANHYDROUS] | – | – | – | 1.5 | – | 1.5 | clearance [7]: 3 mL/min/kg
37 | O=C(O)c1cn(C2CC2)c2cc(N3CCNCC3)c(F)cc2c1=O [CIPROFLOXACIN] | 0.98 | 0.94 | 0.75 | – | – | – | –
38 | CCCCC(=O)N(Cc1ccc(-c2ccccc2-c2nnn[nH]2)cc1)[C@H](C(=O)O)C(C)C | – | – | – | 0.3 | – | 0.1 | Fu [8]: 0.04
39 | CO/N=C(\C(=O)N[C@@H]1C(=O)N2C(C(=O)O)=C(CSc3nc(=O)c(=O)[nH]n3C)CS[C@H]12)c1csc(N)n1 [CEFTRIAXONE] | – | – | – | 0.1 | – | 0.1 | Fu [8]: 0.052
40 | Nc1nnc(-c2cccc(Cl)c2Cl)c(N)n1 [LAMOTRIGINE] | – | – | – | 0.6 | 0.98 | 0.042 | clearance [7]: 0.6 mL/min/kg
41 | CNC(=O)Oc1ccc2c(c1)[C@]1(C)CCN(C)[C@@H]1N2C [PHYSOSTIGMINE] | – | – | – | 5.5 | 0.01 | 16.5 | Vd [9]: 0.66 L/kg; clearance [7]: 22 mL/min/kg
42 | CN1CCC[C@H]1c1cccnc1 [NICOTINE] | 0.86 | 0.35 | 1 | 15 | 0.3 | – | –
43 | CC(C)c1nc(CN(C)C(=O)N[C@H](C(=O)N[C@@H](Cc2ccccc2)C[C@H](O)[C@H](Cc2ccccc2)NC(=O)OCc2cncs2)C(C)C)cs1 [RITONAVIR] | – | – | – | 1.2 | – | 0.042 | clearance [7]: 1.2 mL/min/kg
44 | COCc1c(C(C)C)nc(C(C)C)c(/C=C/[C@@H](O)C[C@@H](O)CC(=O)O)c1-c1ccc(F)cc1 [CERIVASTATIN] | – | – | – | 2.9 | – | – | CL_renal [12]: 0 mL/min/kg
45 | Cc1cccc(C)c1NC(=O)NCCCNC(C)C | – | – | – | 2.2 | – | – | fraction unbound [11]: 0.86
46 | CCCCc1oc2ccccc2c1C(=O)c1cc(I)c(OCCN(CC)CC)c(I)c1 [AMIODARONE] | 0.71 | 0.92 | 1 | – | – | – | –
